Test results as given in the NIST ThermoML archive (doi:10.1021/je034173q).

Assays:
[1] = Liquid, Ebulliometric method (Recirculating still)
[2] = molar heat capacity at constant pressure; details: 101.33 kPa, Liquid, Small sample (50 mg) DSC

O=C1OCCO1 [ethylene carbonate]
Details	molar heat capacity at constant pressure [J/K/mol]	vapor or sublimation pressure [kPa]
[1], 451.58 K	–	15.19
[1], 456.04 K	–	17.52
[1], 460.15 K	–	19.94
[1], 466.22 K	–	24.23
[1], 487.1 K	–	44.69
[1], 493.67 K	–	53.59
[1], 500.01 K	–	63.34
[1], 505.5 K	–	73.45
[2], 383.15 K	155.87	–
[2], 388.15 K	156.75	–
[2], 393.15 K	157.63	–
[2], 398.15 K	158.51	–

CC1COC(=O)O1 (centres undefined) [4-methyl-1,3-dioxolan-2-one]
Details	molar heat capacity at constant pressure [J/K/mol]	vapor or sublimation pressure [kPa]
[1], 459.85 K	–	24.21
[1], 465.35 K	–	28.46
[1], 468.45 K	–	31.24
[1], 471.75 K	–	34.04
[1], 475.85 K	–	38.09
[1], 478.35 K	–	40.81
[1], 482.25 K	–	45.44
[1], 485.05 K	–	49.16
[1], 491.25 K	–	57.38
[1], 494.25 K	–	61.83
[1], 496.95 K	–	66.33
[1], 499.45 K	–	70.45
[1], 501.25 K	–	73.46
[1], 504.05 K	–	78.67
[1], 506.65 K	–	83.64
[1], 508.15 K	–	86.64
[1], 509.75 K	–	89.87
[1], 511.15 K	–	92.66
[1], 513.25 K	–	97.17
[2], 303.15 K	170.49	–
[2], 313.15 K	172.53	–
[2], 323.15 K	174.57	–
[2], 333.15 K	176.61	–
[2], 343.15 K	178.66	–
[2], 353.15 K	180.7	–
[2], 363.15 K	183.76	–
[2], 373.15 K	185.8	–
[2], 383.15 K	188.86	–
[2], 393.15 K	190.91	–

CCC1COC(=O)O1 (centres undefined) [1,2-butylene carbonate]
Details	molar heat capacity at constant pressure [J/K/mol]	vapor or sublimation pressure [kPa]
[1], 397.25 K	–	1.9
[1], 402.93 K	–	2.44
[1], 409.65 K	–	3.23
[1], 417.69 K	–	4.45
[1], 424.67 K	–	5.8
[1], 432.03 K	–	7.57
[1], 438.31 K	–	9.43
[1], 445.57 K	–	12.03
[1], 453.2 K	–	15.39
[1], 460.53 K	–	19.28
[1], 467.68 K	–	23.89
[1], 474.59 K	–	29.14
[1], 481.93 K	–	35.77
[1], 488.3 K	–	42.38
[1], 495.04 K	–	50.52
[1], 501.76 K	–	59.91
[1], 508.33 K	–	70.54
[1], 515.54 K	–	83.68
[1], 522.74 K	–	99.08
[2], 283.15 K	192.75	–
[2], 293.15 K	195.07	–
[2], 303.15 K	197.4	–
[2], 313.15 K	199.72	–
[2], 323.15 K	202.04	–
[2], 333.15 K	205.52	–
[2], 343.15 K	207.85	–
[2], 353.15 K	210.17	–
[2], 363.15 K	212.49	–
[2], 373.15 K	214.81	–

O=C1OCC(CO)O1 (centres undefined) [glycerine carbonate]
Details	molar heat capacity at constant pressure [J/K/mol]	vapor or sublimation pressure [kPa]
[1], 429.91 K	–	0.26
[1], 432.47 K	–	0.3
[1], 434.39 K	–	0.33
[1], 435.94 K	–	0.36
[1], 438.9 K	–	0.41
[1], 447.48 K	–	0.62
[1], 449.41 K	–	0.68
[1], 452.48 K	–	0.78
[1], 455.61 K	–	0.9
[2], 283.15 K	211.38	–
[2], 293.15 K	213.74	–
[2], 303.15 K	214.92	–
[2], 313.15 K	216.1	–
[2], 323.15 K	217.28	–
[2], 333.15 K	218.46	–
[2], 343.15 K	220.82	–
[2], 353.15 K	223.19	–
[2], 363.15 K	225.55	–
[2], 373.15 K	226.73	–
